Laboratory results as given in patent publication US8524691B2, “Phosphonated rifamycins and uses thereof for the prevention and treatment of bone and joint infections” (The Medicines Company, priority 2008, dated 2013).
Converted amounts (≈) assume the structure as drawn. Like-named read-outs stand apart in the source and are kept apart here.

Assays:
[1] = test system: S. aureus ATCC 13709^A, Novobiocin and Rifampicin resistant variant; assay: Antibacterial susceptibility (MIC), NCCLS broth microdilution; format: cell-based
Description: (§1) Susceptibility of S. aureus strains to the known antibiotics and synthesized compounds was determined by following the guidelines set by NCCLS (M26-A). Compounds were diluted two-fold serially in DMSO and transferred to cation-adjusted Mueller Hinton broth (CAMHB; Becton Dickinson). 50 μL of compounds diluted in CAMHB was mixed with 100 μL of bacteria diluted in CAMHB in 96-well microtiter plates. The final concentration of micro-organisms in the assay was 5×10^5c.f.u. per mL and the final concentration of DMSO in the assay was 1.25%. Assays were set up in duplicate and incubated at 37° C. for 18 h. The lowest concentration of compound that inhibited visible growth was reported as the minimum inhibitory concentration (MIC).

[2] = test system: S. aureus ATCC 29213; assay: as above; format: cell-based
Description: as §1

[3] = test system: S. aureus ATCC 13709; assay: microbe, parasite or virus in culture; format: cell-based; conditions: for Serum dependence of antibacterial activity (in words): MIC with versus without serum
Description: as §1
Susceptibility testing experiments were also carried out in the presence of serum. These experiments were carried out similar to the susceptibility testing with the following modifications. 75 μL of compounds diluted in CAMHB was mixed with 75 μL of bacteria diluted in 100% serum from any given source (commercial pooled mouse serum (MS) and human serum (HS), Equitech-Bio Inc.) or diluted in 8% purified human serum albumin (HSA) (Calbiochem). The final concentration of animal serum in the assay was 50% and the final concentration of purified human serum albumin in the assay was 4%; the concentrations of all other components were identical to those described for susceptibility testing.

[4] = test system: S. aureus ATCC 13709; assay: microbe, parasite or virus in culture; format: cell-based; conditions: for Antibacterial activity (in words, from Table 1): S. aureus MIC
Description: as §1

[5] = test system: Novobiocin resistant mutant strain of S. aureus ATCC 13709; assay: Prophylactic efficacy in rat model of S. aureus bone infection; format: in vivo; conditions: 20 mg/kg parent drug equivalent, single intravenous bolus 1 day prior to infection; tibia 24 h postinfection
Description: To determine the in vivo activity of bisphosphonated prodrugs of Rifamycin derived antibacterials in comparison to their non-bisphosphonated parents, compounds 18, 19, 48a, 59, 66, 89, 95, 102, 110, 142b and 164 and their parent drug rifabutin were used as prophylactic therapeutics in an animal model of infection. Specifically, a spontaneous Novobiocin resistant mutant strain of S. aureus ATCC 13709 (a clinical osteomyelitis isolate), was grown overnight at 37° C. in brain heart infusion broth (BHIB). After 16 h of growth, cells were subcultured into fresh BHIB and incubated for 4 to 5 h at 37° C. The cells were washed twice with phosphate-buffered saline (PBS) and resuspended in BHIB supplemented with 10% (vol./vol.) fetal bovine serum at a density of approximately 10^10 colony forming units (CFU)/ml (based upon turbidimetry). The suspension was aliquoted and a portion was used to check the CFU count. The culture was stored frozen (−80° C.) and was used without subculture. For use as an inoculum the culture was thawed, diluted in PBS and kept in an ice bath until it was used.
Animals were infected as described by O'Reilly et al. (Antimicrobial Agents and Chemotherapy (1992), 36(12): 2693-97) to generate the bone infection. Female CD rats (age, 57 to 70 days; n=5/group; Charles River, St-Constant, Canada) were anaesthetized by isofluorane before and during the surgery. Following complete induction of anesthesia, the rat was placed ventral side up and hair was shaved from the surgical site. The skin over the leg was cleaned and disinfected (proviodine-ethanol 70%). A longitudinal incision below the knee joint was made in the sagital plane. The incision was made over the bone below the “knee joint” (tibia head or condyle) but not completely extending to the ankle. A high speed drill fitted with a 2 mm bulb bit was used to drill a hole into the medullar cavity of the tibia. Rats were injected intra-tibially with 0.05 ml 5% sodium morrhuate (sclerosing agent) and then with 0.05 ml of S. aureus suspension (ca. 2×10^7 CFU/rat). The hole was sealed by applying a small amount of dry dental cement which immediately absorbs fluids and adheres to the site. The wound was closed using 3 metal skin clips. Moxifloxacin (as a positive control) was injected once at 10 mg/kg intravenously 1 h postinfection in saline, while the Rifabutin derived prodrugs (prepared in 0.9% saline) were injected at the dose indicated in Table 3 as a single intravenous bolus at different time points prior to the infection.
Infected rats were sacrificed by CO2 asphyxiation 24 h postinfection to monitor the bacterial CFU count. Infected tibiae were removed, dissected free of soft tissue, and weighed. The bones were ground, 50 mg of charcoal were added and the powder was resuspended in 5 ml 0.9% NaCl, serially diluted and processed for quantitative cultures. Treatment efficacy was measured in terms of Log viable bacteria (Log CFU per gram of bone). […] The limit of detection is 2 Log CFU. Statistical comparisons of viable bacterial counts for the different treated and untreated groups were performed with the Dunnett's multiple-comparison test. Differences were considered significant when the P value was <0.05 when comparing treated infected animals to the untreated infected ones. The doses used, the amount of time separating the treatment from the time of infection and the treatment outcomes are shown in Table 3.

[6] = format: in vitro ADME; conditions: for % Conversion (prodrug converted to parent drug after binding to bone): 24 h incubation, 37° C.
Description: Amounts of parent drug “regenerated” from the phosphonated prodrug were measured as follows. Washed bone powder-bound prodrugs from the above experiment were resuspended in 400 μL PBS+2% DMSO or in 400 μL 50% (v/v in PBS+2% DMSO) human or rat serum. The suspension was incubated overnight at 37° C., centrifuged at 13,000 rpm for 2 min and the supernatant was recovered. The amount of regenerated parent drug in the supernatant was determined by measurements using the microbiological assay that was previously described for the prodrugs themselves. The amount of prodrug was deduced from standard curves of known amounts of parent drug that were used as reference for each experiment. The amount of regenerated drug assessed by this bioassay was corroborated by MIC determination. The percentage of drug regenerated in PBS or serum after the overnight incubation (Table 2) was deduced from the difference between the amount of bound prodrug and the amount of regenerated drug (not shown).

Row | Structure (SMILES) | Minimum inhibitory concentration, S. aureus ATCC 13709^A [1] | Minimum inhibitory concentration, S. aureus ATCC 29213 ([2]; CAMHB, 37° C., 18 h) | Minimum inhibitory concentration, ATCC 13709 + 50% Human Serum ([3]; 50% Human Serum) | Minimum inhibitory concentration, ATCC 13709 + 50% Mouse Serum ([3]; 50% Mouse Serum) | Minimum inhibitory concentration, ATCC 13709 + 50% Rat Serum ([3]; 50% Rat Serum) | Serum dependence of antibacterial activity (in words) [3] | Minimum inhibitory concentration, S. aureus ATCC 13709 ([4]; CAMHB, 37° C., 18 h) | Measured bacterial titer, test compound [5] | Antibacterial activity (in words, from Table 1) [4] | Release of parent rifabutin from bone powder-bound prodrug (in words) [6] | % Conversion (prodrug converted to parent drug after binding to bone) ([6]; 50% Heat Inactivated Rat Serum) | % Conversion (prodrug converted to parent drug after binding to bone) ([6]; 50% Rat Serum) | % Conversion (prodrug converted to parent drug after binding to bone) ([6]; PBS) | Minimum inhibitory concentration, S. aureus ATCC 29213 [2] | Minimum inhibitory concentration, ATCC 13709 + 50% Human Serum [3] | Minimum inhibitory concentration, ATCC 13709 + 50% Mouse Serum [3] | Minimum inhibitory concentration, ATCC 13709 + 50% Rat Serum [3] | Minimum inhibitory concentration, S. aureus ATCC 13709 [4]
1 | CCC(=O)OCOC(=O)N[C@@H](CCC(=O)Nc1ccc(CC(P(=O)(O)O)P(=O)(O)O)cc1)C(=O)N(C)CC(=O)O[C@@H]1[C@@H](C)[C@@H](O)[C@@H](C)[C@H](OC(C)=O)[C@H](C)[C@@H](OC)/C=C/O[C@@]2(C)Oc3c(C)c(O)c4c(c3C2=O)C2=NC3(CCN(CC(C)C)CC3)NC2=C(NC(=O)/C(C)=C\C=C\[C@@H]1C)C4=O.N.N [Compound 110] | >128 µg/mL | 8 µg/mL | 8 µg/mL | 0.125 µg/mL | 0.0156 µg/mL | significant increase in antibacterial activity in serum | 8 µg/mL | 1.94 ± 0.04 Log CFU/g of bone | – | – | – | – | – | – | – | – | – | –
2 | CO[C@H]1/C=C/O[C@@]2(C)Oc3c(C)c(O)c4c(c3C2=O)C2=NC3(CCN(CC(C)C)CC3)N(C(=O)Oc3ccc(NC(=O)CCC(P(=O)(O)O)P(=O)(O)O)cc3)C2=C(NC(=O)/C(C)=C\C=C\[C@H](C)[C@H](O)[C@@H](C)[C@@H](O)[C@@H](C)[C@H](OC(C)=O)[C@@H]1C)C4=O [Compound 28] | >128 µg/mL | 0.5 µg/mL (≈ 0.412 µM) | 0.25 µg/mL | 2 µg/mL | 0.0625 µg/mL | – | 0.5 µg/mL (≈ 0.412 µM) | – | very low MICs whether in the absence or in the presence of serum | release significant amounts of the parent rifabutin once bound to bone powder, regardless of the presence of serum | 0.07 ± 0.02% | 0.06 ± 0.01% | 0.06 ± 0.01% | – | – | – | – | –
3 | CO[C@H]1/C=C/O[C@@]2(C)Oc3c(C)c(O)c4c(c3C2=O)C2=NC3(CCN(CC(C)C)CC3)NC2=C(NC(=O)/C(C)=C\C=C\[C@H](C)[C@H](OC(=O)CN(C)CCOC(=O)CCC(P(=O)(O)O)P(=O)(O)O)[C@@H](C)[C@@H](O)[C@@H](C)[C@H](OC(C)=O)[C@@H]1C)C4=O [Compound 36] | >128 µg/mL | 2 µg/mL (≈ 1.68 µM) | 2 µg/mL | 1 µg/mL | 0.0625 µg/mL | significant increase in antibacterial activity in serum | 2 µg/mL (≈ 1.68 µM) | – | – | release significant amounts of the parent rifabutin once bound to bone powder, regardless of the presence of serum | 0.07% | 0.07% | 0.07% | – | – | – | – | –
4 | CCCCOC(=O)NCCN(CCCCC(P(=O)(O)O)P(=O)(O)O)CC(=O)O[C@@H]1[C@@H](C)[C@@H](O)[C@@H](C)[C@H](OC(C)=O)[C@H](C)[C@@H](OC)/C=C/O[C@@]2(C)Oc3c(C)c(O)c4c(c3C2=O)C2=NC3(CCN(CC(C)C)CC3)NC2=C(NC(=O)/C(C)=C\C=C\[C@@H]1C)C4=O [Compound 71] | >128 µg/mL | 8 µg/mL (≈ 6.26 µM) | 16 µg/mL | 8 µg/mL | 1 µg/mL | significant increase in antibacterial activity in serum | 4 µg/mL (≈ 3.13 µM) | – | – | – | – | – | – | – | – | – | – | –
5 | CCC(=O)Oc1cc(C)c(OCCCCC(P(=O)(O)O)P(=O)(O)O)c(C)c1CCC(=O)N[C@@H](Cc1ccccc1)C(=O)N(C)CC(=O)O[C@@H]1[C@@H](C)[C@@H](O)[C@@H](C)[C@H](OC(C)=O)[C@H](C)[C@@H](OC)/C=C/O[C@@]2(C)Oc3c(C)c(O)c4c(c3C2=O)C2=NC3(CCN(CC(C)C)CC3)NC2=C(NC(=O)/C(C)=C\C=C\[C@@H]1C)C4=O.N.N [Compound 138] | >128 µg/mL | – | – | – | – | – | – | – | near complete loss of activity | – | – | – | – | >128 µg/mL | >128 µg/mL | >128 µg/mL | >128 µg/mL | >128 µg/mL
6 | CO[C@H]1/C=C/O[C@@]2(C)Oc3c(C)c(O)c4c(c3C2=O)C2=NC3(CCN(CC(C)C)CC3)NC2=C(NC(=O)/C(C)=C\C=C\[C@H](C)[C@H](OC(=O)CNC(=O)CNC(=O)[C@@H](Cc2ccccc2)NC(=O)CNC(=O)CCC(P(=O)(O)O)P(=O)(O)O)[C@@H](C)[C@@H](O)[C@@H](C)[C@H](OC(C)=O)[C@@H]1C)C4=O.N.N [Compound 79b] | >128 µg/mL | 64 µg/mL | 128 µg/mL | 64 µg/mL | 8 µg/mL | – | 64 µg/mL | – | – | – | – | – | – | – | – | – | – | –
